Patent US10292940B2, “Hyaluronic acid-based amphiphilic polymer, preparation method and application thereof” (BrightGene Bio-Medical Technology Co., Ltd., priority 2015, dated 2019)
Where two headings read alike, the source gives them in different places.

How the values were obtained:
[1] = Blood circulation in mice after tail vein injection; settings: DOX 15 mg/kg, up to 24 h
Experimental: Six about 5-8 weeks old nude mice weighing 18-22 g were randomly divided into two groups, and each group was administered with DOX-loaded HA-Lys-LA crosslinked nanoparticles (MnHA=35 kDa, DS=10%, DLC=12%) or free DOX (DOX dosage being 15 mg/kg) via tail vein injection. 10 μL of blood was withdrawn from the tail vein each time at different time points after injection for 2 minutes, 15 minutes, 30 minutes, 1 h, 2 h, 4 h, 6 h, 8 h, 12 h, 24 h. After the blood was withdrawn, the blood sample was weighed and dissolved in 100 μL of 1% Triton solution, and then 1 mL of 0.75 mol/L hydrochloric acid isopropanol solution was added thereto. The mixture was allowed to stand overnight in dark at −20° C. After centrifugation, the supernatant was subjected to fluorescence test. % ID/g=(FL sample×(V Triton+V hydrochloric acid))/(M blood×FL standard×V standard×standard dilution factor)×100%
Six about 5-8 weeks old nude mice weighing 18-22 g were randomly divided into two groups, and each group was administered with DOX-loaded HA-Lys-LA crosslinked nanoparticles (MnHA=35 kDa, DS=40%, DLC=20%) or free DOX (DOX dosage being 15 mg/kg) via tail vein injection. […] After centrifugation, the supernatant was subjected to fluorescence test. % ID/g=(FL sample×(V Triton+V hydrochloric acid))/(M blood×FL standard×V standard×standard dilution factor)×100% […]

MCF-7/ADR tumor [2] = assay: Ex vivo imaging of organs of tumor-bearing nude mice; assay type: in vivo; settings: DOX about 15 mg/kg, 10 h
Experimental: After 10 h, the heart, liver, spleen, lung, kidney and tumor block were collected, washed and fixed on a black plastic plate, which was then placed in a Maestro in vivo imaging system, and the intensity of DOX distribution in vivo was measured at an emission wavelength of 523 nm.

MCF-7/ADR tumor [3] = assay: Bio-distribution in organs of tumor-bearing nude mice; assay type: in vivo; settings: DOX about 15 mg/kg, tail vein, after 10 h
[4] = tested on: LP1 tumor (multiple myeloma)
Experimental: (§1) Tumor-bearing nude mice with a tumor size of 50 min^3 were randomly divided into three groups (six in each group), and this day is set to day 0. […] Effects of drug-loaded micelles on tumor growth in nude mice were regularly measured with a caliper. Changes in body weight of nude mice were regularly weighed with a balance. The tumor size was obtained based on a formula V=0.5×L×W×H (L is the length of the longest points of the tumor; W is the length of the shortest points of the tumor; H is the height of the tumor). After 24 days, one mouse was randomly taken from each group and was killed by neck and spine dislocation, and the heart, liver and tumor of each mouse were removed and fixed with 4% formaldehyde, sliced and stained with hematoxylin and eosin (H & E) and subjected to histological analysis. The remaining nude mice were still observed. Mice were considered to be died when the nude mice died during treatment, or the tumor volume exceeded 1000 mm^3. Relative tumor volume (%)=tumor volume/tumor volume on day 0×100%. Relative weight change (%)=body weight of nude mic body weight of nude mice on day 0×100%.

MCF-7/ADR tumor [5] = assay: Anti-tumor effect in nude mice bearing drug-resistant breast-cancer tumor
Source text: as §1, with “mm^3” for “min^3”, “V=0.5×L×W×H” for “V=0.5×L×W×H (L”, “mice/body” for “mic body”

SMILES: COc1cccc2c1C(=O)c1c(O)c3c(c(O)c1C2=O)C[C@@](O)(C(=O)CO)C[C@@H]3O[C@H]1C[C@H](N)[C@H](O)[C@H](C)O1 [free DOX, doxorubicin]
- blood circulation (DOX in mice blood) [1]: almost not detected in mice blood after 2 h
- DOX distribution in tumor and organs (ex vivo fluorescence) (MCF-7/ADR tumor [2]): almost did not concentrate at the tumor site
- enrichment of DOX at the tumor site (MCF-7/ADR tumor [3]): 0.63 % ID/g
- reduction of body weight of nude mice ([4]; DOX about 7.5 mg/kg): about 34%
- side effects / tolerance ([4]; DOX about 7.5 mg/kg): large side effects
- time within which all mice died ([4]; DOX about 7.5 mg/kg): ≤ 15 days
- tumor volume growth / therapeutic effect ([4]; DOX about 7.5 mg/kg, tail vein): could not inhibit tumor growth
- side effects / tolerance ([4]; DOX about 7.5 mg/kg, listed as free drug): not tolerated
- H&E histology of heart and liver ([4]; after 24 days): liver corresponding to the free DOX group was greatly damaged, and myocardial cell atrophied
- H&E histology of tumor tissue ([4]; after 24 days): grew vigorously
- reduction of body weight of nude mice (MCF-7/ADR tumor [5]; DOX about 7.5 mg/kg): 28%
- side effects (MCF-7/ADR tumor [5]; DOX about 7.5 mg/kg): large side effects
- time within which all mice died (MCF-7/ADR tumor [5]; DOX about 7.5 mg/kg): ≤ 28 days
- tumor volume growth (MCF-7/ADR tumor [5]; DOX about 7.5 mg/kg, tail vein): could not inhibit tumor growth
- H&E histology of heart and liver (MCF-7/ADR tumor [5]; after 24 days): liver corresponding to the free DOX group was greatly damaged, and myocardial cell atrophied
- H&E histology of tumor tissue (MCF-7/ADR tumor [5]; after 24 days): grew vigorously
